# Where “and” joins values, the source holds several entries; their conditions need not be identical. Equal values may be shown once. Read-outs that look alike come from different tables or passages of the source. Where a SMILES comes first, the peptide text is derived from it. [ ]: non-standard residue; d: D form. The star is where a group is joined. pY = N[CH](Cc1ccc(OP(=O)(O)O)cc1)C(=O)O; Hexanoyl = CCCCCC(=O)*; Ahx = NCCCCCC(=O)O
# Assays:
# [1] = type: in vivo, rat; settings: rat, dosed as prodrug, 10 mg/kg equivalent of Base Structure
# Procedure: • 1. Eight (8) male JVC SD rats (purchased from Charles River Lab) were monitored daily for body condition and health status during the 3-5 days acclimation period. The rats were randomly assigned into […] (n=4). • 2. […] The dosed rats were individually placed into a metabolic cage, and have access to food and water at all times. The urine from each rat was collected daily from the metabolic cages, and kept in dry ice. • 4. At predose (0 min), 5 min, 15 min, 30 min, 1 hr, 2 hr, 8 hr, and 24 hr post dosing, approximately 200 ul blood samples were collected from each rat and transferred to EDTA tubes. • 5. The blood samples in EDTA vials were centrifuged at 4° C. and 6,000 rpm for 10 minutes to generate ˜100 μl of plasma per sample. Blood samples were processed as quickly as possible and remain no longer than 2 min at room temperature and no longer than 15 minutes at 4° C. prior to processing. • 6. All samples were transferred for bioanalytic assay using LCMS
# [2] = Plasma stability study, rat plasma; type: in vitro ADME; settings: Rat plasma, 1 μM, 37° C.
# Procedure: (§1) Human and rat plasma (K2 EDTA) were obtained from Bioreclamation.
# (§2) Compounds were dissolved as 0.3 mM DMSO stocks. Compounds were transferred to the plasma at 1 μM on a 96-well deep well plate. After mixing, samples were transferred to several 96-well plates (25 μL/well), and incubated at 37° C. The extent of metabolism was calculated as the disappearance of the test compound, compared to the 0-min control reaction incubations. Propantheline was included as a positive control to verify assay performance.
# (§3) At each of the time points, 150 μL of quench solution (50% acetonitrile, 50% methanol with 0.05% formic acid) with internal standard (bucetin for positive ESI mode and warfarin for negative ESI mode) was transferred to each well. Plates were sealed and centrifuged at 4° C. for 15 minutes at 4000 rpm. The supernatant was transferred to fresh plates for LC/MS/MS analysis.
# (§4) Elution conditions are detailed in the table below.
# (§5) Initial rates of the clearance of test compounds were calculated using linear regression of semi-log plot of % remaining of compounds versus time. The elimination rate constant (equals to −slope) of the linear regression was then used to determine t½ values.
# [3] = Metabolic stability in simulated intestinal fluid (SIF), pH 6.8, with or without pancreatin; type: in vitro ADME; settings: 5 μM, 37° C.; for half-life: simulated gi fluid
# Procedure: (§6) Metabolic Stability in SIF and SGF (Simulated Intestinal and Gastric Fluid)
# Buffer 3=SIF without enzyme
# Buffer 4=SIF with 1% pancreatin
# (§7) SIF was prepared freshly with 8.7 mM NaOH, 28.65 mM NaH2PO4, 105.85 mM NaCl, with a final pH of 6.8. SGF was prepared freshly with 34.2 mM NaCl, with a final pH of 1.2. Enzymes such as pepsin or pancreatin were added to some buffers. Human and rat plasma (K2 EDTA) were purchased from BioreclamationIVT.
# (§8) Compounds were dissolved as 1.5 mM DMSO stocks. Compounds were transferred to SIF, SGF, or plasma at 5 μM on a 96-well deep well plate. After mixing, samples were transferred to several 96-well plates (25 μL/well), and incubated at 37° C. The extent of metabolism was calculated as the disappearance of the test compound, compared to the 0-min control reaction incubations. Candesartan Cilexetil and omeprazole were included as positive controls for SIF and SGF, respectively, to verify assay performance.
# (§9) At each of the time points, 150 μL of quench solution (100% acetonitrile with 0.1% formic acid) with internal standard (bucetin for positive ESI mode and warfarin for negative ESI mode) was transferred to each well. Plates were sealed and centrifuged at 4° C. for 15 minutes at 4000 rpm. The supernatant was transferred to fresh plates for LC/MS/MS analysis.
# as §4, §5
# [4] = Plasma stability study, human plasma; type: in vitro ADME; settings: Human plasma, 1 μM, 37° C.
# Procedure: as §1, §2, §3, §4, §5
# [5] = Metabolic stability in simulated gastric fluid (SGF), pH 1.2, with or without pepsin; type: in vitro ADME; settings: 5 μM, 37° C.; for half-life: simulated gi fluid
# Procedure: as §6
# Buffer 1=SGF without enzyme
# Buffer 2=SGF with 0.32% pepsin
# as §7, §8, §9, §4, §5
# [6] = analyte Parent (Base Structure), Average
# [7] = analyte Parent (Base Structure), Combined (average ± std. dev.)
# [8] = analyte Parent (Base Structure), individual animals, 10 mg/kg
# [9] = analyte Prodrug, Combined (average ± std. dev.)
# [10] = analyte Prodrug, individual animals
smiles,measurement,setting,value
CCCCCC(=O)N1C(Cc2ccc(OP(=O)([O-])[O-])cc2)C(=O)N(C(C(=O)NCCCCCC(N)=O)C(C)CC)C12CCN(C)CC2.[Na+].[Na+] (stereo not drawn) [Compound 2],Cl/F_obs,[1]; [6],0.2421 (mg/kg)/(ng/ml)/h
same,Vz/F_obs,[1]; [6],6.571 (mg/kg)/(ng/ml)
same,Cl/F_obs,[1]; [7],0.2 ± 0.1 (mg/kg)/(ng/ml)/h
same,Vz/F_obs,[1]; [7],6.6 ± 6.9 (mg/kg)/(ng/ml)
same,Cl/F_obs,[1]; [8],0.1263 (mg/kg)/(ng/ml)/h and 0.2902 (mg/kg)/(ng/ml)/h and 0.3099 (mg/kg)/(ng/ml)/h
same,Vz/F_obs,[1]; [8],0.6603 (mg/kg)/(ng/ml) and 4.961 (mg/kg)/(ng/ml) and 14.09 (mg/kg)/(ng/ml)
same,AUMC 0-inf_obs,"[1]; analyte Prodrug, Average",0 ng/ml * h^2
same,Cl/F_obs,"[1]; analyte Prodrug, Average",0 (mg/kg)/(ng/ml)/h
same,Lambda_z,"[1]; analyte Prodrug, Average",0 h⁻¹
same,Tlag,"[1]; analyte Prodrug, Average",0 h
same,Tmax,"[1]; analyte Prodrug, Average",0 h
same,Vz/F_obs,"[1]; analyte Prodrug, Average",0 (mg/kg)/(ng/ml)
same,AUMC 0-inf_obs,[1]; [9],0 ng/ml * h^2
same,Cl/F_obs,[1]; [9],0 (mg/kg)/(ng/ml)/h
same,Lambda_z,[1]; [9],0 h⁻¹
same,Tlag,[1]; [9],0 h
same,Tmax,[1]; [9],0 h
same,Vz/F_obs,[1]; [9],0 (mg/kg)/(ng/ml)
same,AUMC 0-inf_obs,[1]; [10],0 ng/ml * h^2
same,Cl/F_obs,[1]; [10],0 (mg/kg)/(ng/ml)/h
same,Lambda_z,[1]; [10],0 h⁻¹
same,Tlag,[1]; [10],0 h
same,Tmax,[1]; [10],0 h
same,Vz/F_obs,[1]; [10],0 (mg/kg)/(ng/ml)
same,half-life,[2],18.1 h
same,Plasma Stability (% Parent Remaining) 0 min,[2],100%
same,Plasma Stability (% Parent Remaining) 60 min,[2],82%
same,Plasma Stability (% Parent Remaining) 120 min,[2],77%
same,Plasma Stability (% Parent Remaining) 240 min,[2],83%
same,SIF Stability (pH 6.8) 0 min,[3]; +Pancreatin (1%),100%
same,SIF Stability (pH 6.8) 60 min,[3]; +Pancreatin (1%),94%
same,SIF Stability (pH 6.8) 120 min,[3]; +Pancreatin (1%),51%
same,SIF Stability (pH 6.8) 240 min,[3]; +Pancreatin (1%),34%
same,half-life,"[3]; pH 6.8, +Pancreatin (1%)",2.37 h
same,half-life,"[3]; pH 6.8, −Pancreatin",13.4 h
same,SIF Stability (pH 6.8) 0 min,[3]; −Pancreatin,100%
same,SIF Stability (pH 6.8) 60 min,[3]; −Pancreatin,82%
same,SIF Stability (pH 6.8) 120 min,[3]; −Pancreatin,82%
same,SIF Stability (pH 6.8) 240 min,[3]; −Pancreatin,78%
same,half-life,[4],7.08 h
same,Plasma Stability (% Parent Remaining) 0 min,[4],100%
same,Plasma Stability (% Parent Remaining) 60 min,[4],113%
same,Plasma Stability (% Parent Remaining) 120 min,[4],90%
same,Plasma Stability (% Parent Remaining) 240 min,[4],72%
same,SGF Stability (pH 1.2) 0 min,[5]; +Pepsin (0.32%),100%
same,SGF Stability (pH 1.2) 60 min,[5]; +Pepsin (0.32%),94%
same,SGF Stability (pH 1.2) 120 min,[5]; +Pepsin (0.32%),89%
same,SGF Stability (pH 1.2) 240 min,[5]; +Pepsin (0.32%),73%
same,half-life,"[5]; pH 1.2, +Pepsin (0.32%)",8.62 h
same,half-life,"[5]; pH 1.2, −Pepsin",7.17 h
same,SGF Stability (pH 1.2) 0 min,[5]; −Pepsin,100%
same,SGF Stability (pH 1.2) 60 min,[5]; −Pepsin,84%
same,SGF Stability (pH 1.2) 120 min,[5]; −Pepsin,78%
same,SGF Stability (pH 1.2) 240 min,[5]; −Pepsin,67%
CCCCCC(=O)NC(Cc1ccc(OP(=O)([O-])O)cc1)C(=O)NC(C(=O)NCCCCCC(N)=O)C(C)CC.[Na+] (stereo not drawn) [Compound A30] (Hexanoyl-[pY]-Ile-[Ahx]-NH2; configuration not given here),Plasma Stability Half-Life,[2],21.79 h
same,Plasma Stability (% Parent Remaining) 0 min,[2],100%
same,Plasma Stability (% Parent Remaining) 60 min,[2],88%
same,Plasma Stability (% Parent Remaining) 120 min,[2],87%
same,Plasma Stability (% Parent Remaining) 240 min,[2],86%
same,SIF Stability (pH 6.8) Half-Life (min),[3]; +Pancreatin (1%),156.6 min
same,SIF Stability (pH 6.8) 0 min,[3]; +Pancreatin (1%),100%
same,SIF Stability (pH 6.8) 60 min,[3]; +Pancreatin (1%),70%
same,SIF Stability (pH 6.8) 120 min,[3]; +Pancreatin (1%),51%
same,SIF Stability (pH 6.8) 240 min,[3]; +Pancreatin (1%),34%
same,SIF Stability (pH 6.8) Half-Life (min),[3]; −Pancreatin,68.4 min
same,SIF Stability (pH 6.8) 0 min,[3]; −Pancreatin,100%
same,SIF Stability (pH 6.8) 60 min,[3]; −Pancreatin,43%
same,SIF Stability (pH 6.8) 120 min,[3]; −Pancreatin,22%
same,SIF Stability (pH 6.8) 240 min,[3]; −Pancreatin,8%
same,Plasma Stability Half-Life,[4],1.4 h
same,Plasma Stability (% Parent Remaining) 0 min,[4],100%
same,Plasma Stability (% Parent Remaining) 60 min,[4],36%
same,Plasma Stability (% Parent Remaining) 120 min,[4],20%
same,Plasma Stability (% Parent Remaining) 240 min,[4],12%
same,SGF Stability (pH 1.2) Half-Life (min),[5]; +Pepsin (0.32%),248.3 min
same,SGF Stability (pH 1.2) 0 min,[5]; +Pepsin (0.32%),100%
same,SGF Stability (pH 1.2) 60 min,[5]; +Pepsin (0.32%),95%
same,SGF Stability (pH 1.2) 120 min,[5]; +Pepsin (0.32%),64%
same,SGF Stability (pH 1.2) 240 min,[5]; +Pepsin (0.32%),54%
same,SGF Stability (pH 1.2) Half-Life (min),[5]; −Pepsin,1713.6 min
same,SGF Stability (pH 1.2) 0 min,[5]; −Pepsin,100%
same,SGF Stability (pH 1.2) 60 min,[5]; −Pepsin,95%
same,SGF Stability (pH 1.2) 120 min,[5]; −Pepsin,98%
same,SGF Stability (pH 1.2) 240 min,[5]; −Pepsin,89%
